Experimental data published in US20020143164A1, “Ras activator nucleic acid molecules, polypeptides and methods of use” (priority 1999, published 2002).
Each block holds one molecule with its values, some of them ahead of it.

What was measured:
GRF4 [1] = molecular target: T1, GRF4 (Homo sapiens, UniProt Q9Y4G8); test: Ras activation assay in living cells (GST-Raf1-RBD pull-down), treatment of GRF4-transfected cells; format: cell-based; conditions: for Effect of PKG inhibitor on 8-Br-cGMP enhanced activation of Ras by GRF4: H-8 5 μM or Rp-8-Br-cGMPS 25 μM, then 8-Br-cGMP 500 μM; for Effect of PKG inhibitor on 8-Br-cGMP enhanced activation of Ras by GRF4 / cAMP stimulation of GRF4-mediated activation of Ras in the presence of PKA inhibitor: 30 min; for cAMP stimulation of GRF4-mediated activation of Ras in the presence of PKA inhibitor: H-89 10 μM or Rp-8-Br-cAMPS 50 μM, then 8-Br-cAMP 500 μM; for GRF4 stimulation of Ras activation enhanced following treatment / Enhancement of activation of Ras by GRF4 by membrane permeable cNMP analogue: HEK-293T cells transfected with Flag-GRF4; for Enhancement of activation of Ras by GRF4 by membrane permeable cNMP analogue: analogue 500 μM
T1 construct: Flag, HA or myc tags was added to the N-terminus of full length GRF4 using PCR; expressed in transfected cells; host or cells: HEK-293T
T1 sequence (Q9Y4G8 1-1499): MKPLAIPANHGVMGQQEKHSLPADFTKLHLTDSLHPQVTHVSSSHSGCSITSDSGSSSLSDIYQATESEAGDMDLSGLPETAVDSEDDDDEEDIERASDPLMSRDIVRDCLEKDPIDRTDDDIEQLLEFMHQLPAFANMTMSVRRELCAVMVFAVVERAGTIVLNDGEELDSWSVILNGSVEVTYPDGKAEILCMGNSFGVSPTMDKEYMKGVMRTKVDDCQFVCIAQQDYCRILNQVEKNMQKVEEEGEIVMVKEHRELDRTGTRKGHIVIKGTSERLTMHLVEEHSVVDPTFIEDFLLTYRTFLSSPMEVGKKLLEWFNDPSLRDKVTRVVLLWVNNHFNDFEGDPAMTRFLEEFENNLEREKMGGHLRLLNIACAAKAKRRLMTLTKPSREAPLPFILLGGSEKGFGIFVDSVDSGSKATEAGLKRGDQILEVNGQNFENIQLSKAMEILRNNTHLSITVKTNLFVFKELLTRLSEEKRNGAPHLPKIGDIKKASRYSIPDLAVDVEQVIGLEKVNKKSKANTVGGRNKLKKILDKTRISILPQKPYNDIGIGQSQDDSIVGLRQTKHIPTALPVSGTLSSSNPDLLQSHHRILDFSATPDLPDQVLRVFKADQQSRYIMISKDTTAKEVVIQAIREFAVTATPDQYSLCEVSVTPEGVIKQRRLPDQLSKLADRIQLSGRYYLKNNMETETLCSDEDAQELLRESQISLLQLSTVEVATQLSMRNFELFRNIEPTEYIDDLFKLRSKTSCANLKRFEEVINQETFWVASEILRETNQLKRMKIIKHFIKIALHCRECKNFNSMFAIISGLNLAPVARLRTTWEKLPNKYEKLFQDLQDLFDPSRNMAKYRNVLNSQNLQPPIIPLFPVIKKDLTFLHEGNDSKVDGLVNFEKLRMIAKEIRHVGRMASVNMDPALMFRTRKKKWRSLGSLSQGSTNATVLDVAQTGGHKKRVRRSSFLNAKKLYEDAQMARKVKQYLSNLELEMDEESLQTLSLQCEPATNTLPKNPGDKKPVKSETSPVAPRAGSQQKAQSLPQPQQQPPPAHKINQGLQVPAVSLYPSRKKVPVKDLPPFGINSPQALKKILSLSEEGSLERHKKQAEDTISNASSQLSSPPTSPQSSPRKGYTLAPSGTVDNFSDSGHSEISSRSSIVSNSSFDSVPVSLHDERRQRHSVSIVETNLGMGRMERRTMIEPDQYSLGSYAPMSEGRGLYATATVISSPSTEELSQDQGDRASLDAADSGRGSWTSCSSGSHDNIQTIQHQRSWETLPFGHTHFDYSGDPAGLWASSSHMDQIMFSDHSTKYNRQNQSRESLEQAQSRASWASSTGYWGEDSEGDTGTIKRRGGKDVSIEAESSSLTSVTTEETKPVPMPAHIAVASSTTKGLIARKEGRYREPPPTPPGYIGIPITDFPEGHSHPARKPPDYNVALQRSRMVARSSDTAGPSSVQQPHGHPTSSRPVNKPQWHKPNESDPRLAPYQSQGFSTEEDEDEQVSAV
Procedure: Cells were then lysed and lysate incubated with immobilized Ras binding domain (RBD) of Raf1 (GST-Raf1-RBD), which binds activated (GTP-bound) Ras. Co-precipitated activated ras was then detected with anti Ras antibodies (Quality Biotech) (upper panel). Lower 2 panels depict the amounts of total endogenous Ras and of the transfected GRF4 (detected with anti Ras and anti Flag antibodies, respectively).
Cells were transfected (or not) with Flag-GRF4 and serum-starved overnight as in (a) above, pre-treated (or not) with the PKG inhibitors H8 (5 μM) or Rp-cGMPS (25 μM) and then treated (or not) with the cGMP analogue 8-Br-cGMP (500 μM), as in (a) above. Activated Ras was then precipitated with GST-Raf1-RBD (upper panel), as in (a). Lower panels show total endogenous Ras and GRF4 expressed in the cells.
Parallel treatments with 8-Br-cAMP or 8-Br-cGMP were used as positive controls. Lysates of treated cells were then incubated with GST-Raf1-RBD to precipitate activated Ras, and immunoblotted with anti Ras antibodies, as above (upper panel). Lower panels are as in (a) and (b) above.
The membrane permeable 8-Br-cAMP and 8Br-cGMP analogs (Sigma) were used at a concenreation of 500 μM for 15 min. Inhibitors of PKA: H-89 and Rp-8-Br-cAMPS (CalBiochem) were used at 10 μM and 50 μM, respectively, for 30 min. Inhibitors of PKG: H-8 and Rp-8-Br-cGMPS (CalBiochem) were used at 5 μM and 25 μM, respectively, for 30 min. Activators of Adenylyl Cyclase, Forskolin (Sigma), and activator of Guanylyl Cyclase, YC-1 (CalBiochem), were used at 50 μM and 100 μM, respectively, for 15 min.
(§1) HEK-293T cells were transfected as above, serum starved overnight and then subjected to various treatments, as described in the text. Cells were lysed with lysis buffer (25 mM Hepes, pH 7.5, 150 mM NaCl, 1% NP-40, 0.25% Na deoxycholate, 10% glycerol, 25 mM NaF, 10 mM MgCl2, 1 mM EDTA, 1 mM NaVO4, […]) and the level of Ras.GTP or Rap. GTP in the lysates was determined using activation specific probes as described. Briefly, to determined the levels of active Ras (Ras-GTP) in cell, sepharose-bound GST fusion protein of the Ras-binding domain (RBD) of Raf-1 (GST-Raf1-RBD; Upstate Biotechnology Inc.) was used to precipitate Ras-GTP from cell lysates, and the amount of Ras-GTP determined by immunoblotting with anti Ras antibodies (Quality Biotech). Similarly, to determine the level of Rap1-GTP in cell lysates, sepharose-bound GST fusion proteins of the Rap1-binding domain of RaIGDS (GST-RaIGDS-RBD) were used to precipitate Rap1-GTP, which was then detected on a Western blot using anti-Rap1 antibodies (Transduction Lab).

Rap1 = Rap1 activation assay in living cells (GST-RalGDS-RBD pull-down); format: cell-based, human; conditions: HEK-293T cells expressing GRF4
Procedure: as §1

GRF4 [2] = molecular target: T1, GRF4; test: Activation of Ras and MAPK by cNMP analogues in GRF4-transfected HEK-293T cells; format: cell-based; conditions: HEK-293T cells transfected with GRF4; not in untransfected cells
Procedure: The small GTPase Ras controls the MAPK pathway and exerts its effects on cellular processes primarily through this pathway. MAPK is a downstream kinase of Ras and thus, Ras activation leads to MAPK activation (FIG. 6A). Therefore, we show the GRF4 effects on MAPK activation using assays in which levels of active MAPK in cells is determined using antibodies recognizing phosphorylated (active) MAPK.

GRF4-cNMP-BD = molecular target: T2, GRF4-cNMP-BD (Homo sapiens, UniProt Q9Y4G8); test: cAMP-agarose binding assay; conditions: data not shown
T2 construct: The GST-GRF4-cNMP-BD (residue 101-303); made in house
T2 sequence (Q9Y4G8 101-303): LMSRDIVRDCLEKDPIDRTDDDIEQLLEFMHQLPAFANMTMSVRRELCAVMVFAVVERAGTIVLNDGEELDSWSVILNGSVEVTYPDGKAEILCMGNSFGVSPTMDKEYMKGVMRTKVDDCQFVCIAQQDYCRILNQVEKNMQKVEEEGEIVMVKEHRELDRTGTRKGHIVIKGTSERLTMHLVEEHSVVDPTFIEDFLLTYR
Procedure: Right and left panels in (b) represent two separate experiments.
Following extensive washes in HNTG (20 mM Hepes, pH 7.5, 150 mM NaCl, 0.1% Triton ×100, 10% Glycerol) proteins were eluted off beads with sample buffer, separated on SDS-PAGE and immunoblotted with either anti GST antibodies for the in vitro binding experiments, or with anti GRF4 antibodies for the pull down experiments.

SMILES: Nc1nc2c(nc(Br)n2[C@@H]2O[C@@H]3COP(O)(=S)O[C@H]3[C@H]2O)c(=O)[nH]1 (single isomer, unassigned) [RP8-Br-cGMPS, Guanosine 3′,5′-cyclic monophosphorothioate, 8-Bromo-, Rp-isomer]
Effect of PKG inhibitor on 8-Br-cGMP enhanced activation of Ras by GRF4 (GRF4 [1]): lack of effect

SMILES: Nc1ncnc2c1nc(Br)n2C1OC2COP(O)(=S)OC2C1O (single isomer, unassigned) [Rp8-Br-cAMPS, Adenosine 3′,5′-cyclic monophosphorothioate, 8-Bromo-, Rp-isomer]
cAMP stimulation of GRF4-mediated activation of Ras in the presence of PKA inhibitor (GRF4 [1]): still able to stimulate

SMILES: Nc1ncnc2c1nc(Br)n2[C@@H]1O[C@@H]2COP(=O)(O)O[C@H]2[C@H]1O [8-Br-cAMP]
GRF4 stimulation of Ras activation enhanced following treatment (GRF4 [1]; 8-Br-cAMP 500 μM 15 min plus H-89 10 μM 30 min pre-treatment): 3.5 fold | GRF4 stimulation of Ras activation enhanced following treatment (GRF4 [1]; 8-Br-cAMP 500 μM, 15 min): 3.9 fold | Enhancement of activation of Ras by GRF4 by membrane permeable cNMP analogue (GRF4 [1]; 15 min): greatly enhanced | Stimulation of GRF4-mediated activation of Rap1 (Rap1): not stimulated | Activation of Ras and of MAPK in GRF4-expressing cells (GRF4 [2]): leads to activation

SMILES: Nc1nc2c(nc(Br)n2[C@@H]2O[C@@H]3COP(=O)(O)O[C@H]3[C@H]2O)c(=O)[nH]1 [8-Br-cGMP]
Enhancement of activation of Ras by GRF4 by membrane permeable cNMP analogue (GRF4 [1]; 15 min): greatly enhance | Activation of Ras and of MAPK in GRF4-expressing cells (GRF4 [2]): leads to activation

SMILES: Nc1nc2c(ncn2[C@@H]2O[C@@H]3COP(=O)(O)O[C@H]3[C@H]2O)c(=O)[nH]1 [cGMP, reference compound]
Competition of cAMP binding to the GRF4-cNMP-BD (GRF4-cNMP-BD): effectively competed

Next, values leading:

Effect of PKG inhibitor on 8-Br-cGMP enhanced activation of Ras by GRF4 (GRF4 [1]): lack of effect
SMILES: CNCCNS(=O)(=O)c1cccc2cnccc12 [H-8, N-[2-(methylamino)ethyl]-5-isoquinolinesulfonamide]

cAMP stimulation of GRF4-mediated activation of Ras in the presence of PKA inhibitor (GRF4 [1]): still able to stimulate
SMILES: O=S(=O)(NCCNCC=Cc1ccc(Br)cc1)c1cccc2cnccc12 [H-89, N-[2-((Pbromocinnamyi)amino)ethyl]-5-isoquinoiinesulfonamide]
